Experimental data reported in US6875775B2, “Triphenylalkene derivatives and their use as selective estrogen receptor modulators” (Hormos Medical Oy LTD, priority 1999, dated 2005).
Like-named read-outs stand apart in the source and are kept apart here.

Key:
immature rat uterus = assay: 3 day uterotropic assay in immature female rats; settings: Table 3
Experimental: Estimation of Estrogenicity and Antiestrogenicity in Vivo
The results have been shown in Table 3 both as per cent of estrogen stimulation (100%), and as inhibition of estrogen action (full inhibition is 100%). The values are given at two dose levels, low i.e. 3-5 mg/kg and high i.e. 10-50 mg/kg. Estrogenic activity can be estimated also after a 4 weeks' treatment of ovariectomized rats based on the uterine size.

MCF-7 cells = assay: cells; type: cell-based; settings: for Killing of MCF-7 cells at the highest investigated concentration (in words): 10 μM, compounds with weak hormonal activity; for cytotoxicity at 10 µM / inhibition at 1 µM / Emax: Homo sapiens, MCF7, 96 h; for cytotoxicity at 10 µM: 10 μmol/l, read-out: Maximal Cell Kill (% fraction of dead cells); for inhibition at 1 µM: read-out: Antagonism at 1 μM (% of full antagonism); for Emax: maximal growth stimulus at any concentration, 4 days, read-out: Maximal Agonism (% of E2)
Experimental: Evaluation of Estrogenic and Antiestrogenic Properties of Compounds in MCF-7 Cell Growth Experiments in Vitro
For experiments involving hormone or anti-hormone treatment, the cells in exponential growth phase were precultivated in the absence of estradiol for one day. […] After the incubation period the medium was removed. The exposure to study drugs was started immediately by adding fresh medium with 5% stripped serum. Half of the cells were grown with estradiol, half without estradiol. Study compounds (dissolved in ethanol in 0.01 M concentration and diluted with the growth medium as appropriate) were added. The final concentrations of the compounds were 1, 10, and 100 nM, and 1 and 10 μM. The cells were incubated for four days.
This method allows evaluation of estrogenicity based on the ability of the compounds to stimulate the growth of the estrogen-dependent cells in the absence of estradiol.
Estrogenicity was estimated by comparing the maximal growth stimulus (at any concentration) of study compound as percent from growth stimulus by estradiol (100% stimulus). […] At high concentrations molecules may also show toxicity. Toxicity was estimated as the fraction of dead cells (i.e. 100% means that all cells have died during the exposure).

ovariectomized rats [1] = assay: Size of the uterus after 4 weeks treatment of ovariectomized rats; type: in vivo, rat
[2] = system: DMBA-induced rat mammary gland cancer; assay: Antitumor activity in DMBA-induced rat mammary gland cancer model; type: in vivo
Experimental: Estimation of Antitumor Activity in Vivo
Antitumor activity was estimated by using DMBA (dimethylbenz[a] anthracene) model. One single peroral dose of DMBA (12 mg) initiates mammary gland carcinogenesis. New compounds were administered for 5 weeks when palpable tumors appeared. Size of the tumors and number of new tumors were carefully estimated once a week until termination. The model has been described in detail by Kangas et al, 1986. The growth of the tumors was measured once a week. All tumors were classified according to their growth properties to progressing, stable and regressing ones. Disappeared tumors were separately calculated. The tumors were considered to be progressing, if the tumor volume grew more than 8-fold during the 5 weeks dosing period, and regressing if the tumor volume decreased to one fourth or less from the volume in the beginning. If tumor volume changed less or remained unchanged, the tumors were considered to be stable.

[3] = system: intact and castrated male rats; assay: Weight of the prostate gland in intact and castrated male rats after 4 weeks daily treatment; type: in vivo, rat; settings: for Weight of the prostate gland (g) mean and sd: 4 weeks daily
ovariectomized rats [4] = assay: Ash weight of tibial epiphyses in ovariectomized rats after 4 weeks dosing; type: in vivo, rat; settings: OVX rats
From the text: (§1) Compounds were given p.o. to female rats for 4 or 5 weeks daily. At the end a blood sample was taken. Serum was separated by centrifugation and frozen until analyzed for total amount of cholesterol. Bone samples were taken from vertebra and tibia. Physical strength of the bones was studied as described by Peng et al, 1994. The assessments of the bone included:
Ash Weight of Tibial Epiphyses
Epiphyses of one tibia was carefully prepared and burned. Samples were burned to remove water and organic material. Ash weight relates to the mineral content of the bone. In addition, bone samples were taken to study the histomorphometry. In some cases the bone formation was studied by injecting tetracycline (50 mg/kg i.p. 10 days before autopsy) and calcein (20 mg/kg i.p. 3 days before autopsy). The method is based on permanent binding of tetracycline into growing bone and its detection by fluorescence (Peng et al, 1994).

ovariectomized rats [5] = assay: Maximal load of femoral neck (cantilever bending test) in ovariectomized rats after 4 weeks dosing; type: in vivo, rat; settings: OVX rats
Experimental: as §1
Mechanical Testing of Bones
The mechanical testing of bones was carried out by materials testing machine, constructed in-house at Oulu University (Technical Services Dcpartment of the Medical Faculty). The testing machine is based on lever arm principle. One end of a steel lever is fixed. The pressing rod and the driving motor are connected to the lever arm with a moment ratio of 12.5 cm/50 cm=¼. As a driving motor a linear actuator (SEY 10 Magnetic Elektromotoren AG, Switzerland) is used to obtain constant vertical movement (0.62 cm/s). The interchangeable compression head is mounted on the pressing rod for different tests transmitting compressive force to the specimen, and moving at a constant speed of 0.155 mm/s up to a maximal load capacity of 1200 N. The pressing rod is guided via an axial ball bearing to keep the movement vertical. Compressive force is measured by a temperature-compensated force sensor, which is attached to the stationary part of the compression stage. The measuring electronics include sensor calibration and adjustments.
The maximal load on the femoral neck was measured by the cantilever bending test. The supporter for the bone was a thick polymethyl methacrylate plate in which several holes of different sizes were drilled. On one side of each hole a groove was engraved for the […] trochanter of the femur. The femur was cut exactly between the middle and lower third of the shaft. The bone was inserted perpendicularly and tightly into a suitable hole on the supporter. The lesser trochanter of each bone touched the surface of the plate. This procedure allowed rapid and stable fixation of the bone without using any additional embedding materials. […]

[6] = Overall hormonal profile summarised from Tables 2, 3 and 4
[7] = system: ovariectomized (OVX) rats; assay: Serum cholesterol level in ovariectomized (OVX) rats after 4 weeks dosing; type: in vivo, rat; settings: for Cholesterol level (mmol/l) in serum: OVX rat, 4 weeks dosing; for Effect on cholesterol (in words): OVX rats, Table 4
From the text: Estimation of Effects to Cholesterol and Bone
as §1, with “1994.” for “1994. The assessments of the bone included:”

[8] = 15 mg/kg p.o. daily for 5 weeks

## CN(C)CCOc1ccc(/C(=C(/CCCl)c2ccccc2)c2ccc(F)cc2)cc1 [No. 1, (E)-(2-{4-[4-Chloro-1-(4-fluorophenyl)-2-phenylbut-1-enyl]phenoxy}ethyl)-dimethylamine]
Immature rat uterus
  Estrogenic action in vivo / in the uterus (in words): weak estrogen in vivo
MCF-7 cells
  Killing of MCF-7 cells at the highest investigated concentration (in words): kill MCF-7 cells (human breast cancer cells) effectively
MCF-7 cells; in vitro, Table 2
  Estrogenic action in vitro (in words): no estrogenic action in vitro

## OCCOCCOc1ccc(/C(=C(/CCCl)c2ccccc2)c2ccccc2)cc1 [No. 19, (Z)-2-{2-[4-(4-Chloro-1,2-diphenylbut-1-enyl)phenoxy]ethoxy}ethanol]
Ovariectomized rats [1]; 1.0 mg/kg peroral daily
  Uterine size: 0.192 ± 0.029 g
Ovariectomized rats [1]; 5.0 mg/kg peroral daily
  Uterine size: 0.221 ± 0.023 g
[2]; 3 mg/kg p.o. daily for 5 weeks
  Disappeared tumors (per cent of total tumor number): 20%
  Growing tumors (per cent of total tumor number): 20%
  Regressing tumors (per cent of total tumor number): 40%
  Stable tumors (per cent of total tumor number): 20%
[2]; [8]
  Disappeared tumors (per cent of total tumor number): 14%
  Growing tumors (per cent of total tumor number): 14%
  Regressing tumors (per cent of total tumor number): 57%
  Stable tumors (per cent of total tumor number): 14%
[2]; DMBA-induced rat mammary tumor model, even at very low doses
  Anticancer efficacy in vivo compared with tamoxifen and toremifene (in words): more effective anticancer drug in vivo
[3]; 0.5 mg/kg to castrated rats
  Weight of the prostate gland (g) mean and sd: 0.59 ± 0.07 g
[3]; 0.5 mg/kg, intact male rats
  Weight of the prostate gland (g) mean and sd: 2.66 ± 0.21 g
[3]; 5.0 mg/kg to castrated rats
  Weight of the prostate gland (g) mean and sd: 0.62 ± 0.07 g
[3]; 5.0 mg/kg, intact male rats
  Weight of the prostate gland (g) mean and sd: 1.58 ± 0.5 g
[3]; at doses which are active in DMBA-induced mammary tumor model
  Estrogenic action on the weight of the prostate gland (in words): does not show any estrogenic action
Ovariectomized rats [4]; 1.0 mg/kg p.o.
  Ash weight (mg) of tibial epiphyses: 34.8 ± 1.3 mg
Ovariectomized rats [4]; 5.0 mg/kg p.o.
  Ash weight (mg) of tibial epiphyses: 34.9 ± 1.9 mg
MCF-7 cells
  Killing of MCF-7 cells at the highest investigated concentration (in words): kill MCF-7 cells (human breast cancer cells) effectively
MCF-7 cells; With estradiol (E2)
  cytotoxicity at 10 µM: 50%
  inhibition at 1 µM: 21%
MCF-7 cells; Without estradiol (E2)
  cytotoxicity at 10 µM: 14%
  Emax: 14%
Ovariectomized rats [5]; 1.0 mg/kg p.o.
  Maximal load (N) of femoral neck: 81.6 ± 7.9 N
Ovariectomized rats [5]; 5.0 mg/kg p.o.
  Maximal load (N) of femoral neck: 85.7 ± 17.0 N
[6]
  Estrogenic and antiestrogenic action (in words): weak estrogenic and no antiestrogenic action
[7]; 0.3 mg/kg
  Cholesterol level (mmol/l) in serum: 3.6 ± 0.4 mmol/L
[7]; 10 mg/kg
  Cholesterol level (mmol/l) in serum: 3.9 ± 0.6 mmol/L
[7]
  Effect on cholesterol (in words): decrease cholesterol

## OCC(O)COc1ccc(/C(=C(/CCCl)c2ccccc2)c2ccccc2)cc1 (stereo not shown) [No. 20, (Z)-3-[4-(4-Chloro-1,2-diphenyl-but-1-enyl)phenoxy]propane-1,2-diol]
Ovariectomized rats [1]; 1.0 mg/kg peroral daily
  Uterine size: 0.133 ± 0.032 g
Ovariectomized rats [4]; 3.0 mg/kg p.o.
  Ash weight (mg) of tibial epiphyses: 35.0 ± 3.2 mg
MCF-7 cells; With estradiol (E2)
  cytotoxicity at 10 µM: 60%
  inhibition at 1 µM: 25%
MCF-7 cells; Without estradiol (E2)
  cytotoxicity at 10 µM: 5%
  Emax: 8%
Ovariectomized rats [5]; 3.0 mg/kg p.o.
  Maximal load (N) of femoral neck: 81.7 ± 15.2 N
[6]
  Estrogenic and antiestrogenic action (in words): weak estrogenic and no antiestrogenic action
[7]; 1 mg/kg
  Cholesterol level (mmol/l) in serum: 3.3 ± 0.6 mmol/L
[7]; 5 mg/kg
  Cholesterol level (mmol/l) in serum: 2.3 ± 0.4 mmol/L
[7]
  Effect on cholesterol (in words): decrease cholesterol
